Measured values: patent US9969723B2, “3-(4-(benzyloxy)phenyl)hex-4-ynoic acid derivative, method of preparing same and pharmaceutical composition for preventing and treating metabolic disease including same as effective ingredient” (HYUNDAI PHARM CO., LTD, priority 2014, dated 2018)
Like-named read-outs stand apart in the source and are kept apart here.

Legend:
[1] = target: CYP1A2 (Homo sapiens (Human), UniProt P05177); assay: CYP inhibition (BD GENTEST kit); type: in vitro ADME; settings: pH 7.4
CYP1A2, sequence (P05177 whole entry): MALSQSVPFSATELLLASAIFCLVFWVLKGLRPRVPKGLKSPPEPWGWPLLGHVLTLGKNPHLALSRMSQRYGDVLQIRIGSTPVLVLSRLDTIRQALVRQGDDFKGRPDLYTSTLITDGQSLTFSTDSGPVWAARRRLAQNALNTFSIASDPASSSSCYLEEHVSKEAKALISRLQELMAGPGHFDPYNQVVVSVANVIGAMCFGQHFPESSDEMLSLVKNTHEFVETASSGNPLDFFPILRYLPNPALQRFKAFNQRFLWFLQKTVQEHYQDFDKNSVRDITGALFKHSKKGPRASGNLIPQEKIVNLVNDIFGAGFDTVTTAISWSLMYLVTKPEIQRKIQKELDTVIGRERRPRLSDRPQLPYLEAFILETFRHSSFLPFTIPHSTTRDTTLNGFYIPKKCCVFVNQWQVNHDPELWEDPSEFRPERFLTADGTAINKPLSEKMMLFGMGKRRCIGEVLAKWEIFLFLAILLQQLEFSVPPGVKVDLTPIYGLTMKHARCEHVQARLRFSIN
Protocol: (§1) CYP is the enzyme involved in drug metabolism. So, the inhibition of this enzyme can change the prediction of dose of a drug and toxicity caused by the co-treatment with other drugs. Therefore, the inventors measured the inhibitory effect of the compounds of Examples of the invention on endogenous CYP3A4, CYP2C9, CYP1A2, CYP2D6, and CYP2C19. […] To prepare the Invitrogen kit, the test sample was diluted in distilled water at 2.5× of the final experimental concentration.
(§2) The test sample for BD GENTEST kit was diluted in acetonitrile at 50× of the final experimental concentration. NADPH-coenzyme mixture was prepared by diluting the coenzyme, G6PDH, and regulatory protein included in the kit with distilled water at the concentration instructed by the kit. The prepared 50× sample (4 μL) and the NADPH-coenzyme mixture (96 μL) were mixed in each well of U-bottom 96-well plate, followed by pre-culture for 10 minutes in a 37° C. incubator. Enzyme/substrate mixed solution was prepared by diluting the buffer (0.5 M potassium phosphate, pH 7.4), each CYP450 enzyme/substrate mixed solution included in the kit with distilled water at the instructed concentration. Upon completion of the pre-culture, 100 μL of the enzyme/substrate mixed solution was added in each well of the plate, followed by culture in a 37° C. incubator for 15 minutes (CYP 1A2), 30 minutes (CYP 3A4 and CYP 2C19) or 1 and half hours (CYP 2C9). […] The values obtained above were converted into % as the inhibition rate of the sample by the value of the non-treated group.

[2] = target: CYP2C19 (Homo sapiens (Human), UniProt P33261); assay: CYP inhibition (BD GENTEST kit); type: in vitro ADME; settings: CYP2C19 enzyme of BD GENTEST inhibition kit, pH 7.4, read-out: CYP inhibition (%) 2C19
CYP2C19, sequence (P33261 whole entry): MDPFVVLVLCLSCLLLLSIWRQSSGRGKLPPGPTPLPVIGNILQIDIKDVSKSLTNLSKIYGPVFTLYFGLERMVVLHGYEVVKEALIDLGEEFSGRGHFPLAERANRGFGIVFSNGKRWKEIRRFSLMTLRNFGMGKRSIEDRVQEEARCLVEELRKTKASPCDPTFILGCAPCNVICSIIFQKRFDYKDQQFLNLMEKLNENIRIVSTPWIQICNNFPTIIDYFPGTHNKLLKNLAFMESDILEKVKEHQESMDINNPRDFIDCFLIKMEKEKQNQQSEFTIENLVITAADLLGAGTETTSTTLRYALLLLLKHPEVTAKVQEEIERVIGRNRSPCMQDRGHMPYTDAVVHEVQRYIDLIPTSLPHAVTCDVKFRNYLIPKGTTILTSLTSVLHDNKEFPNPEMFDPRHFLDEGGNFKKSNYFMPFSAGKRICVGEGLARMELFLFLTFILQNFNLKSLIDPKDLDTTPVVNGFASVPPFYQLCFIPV
Protocol: as §1, §2

[3] = target: CYP2C9 (Homo sapiens (Human), UniProt P11712); assay: CYP inhibition (BD GENTEST kit); type: in vitro ADME; settings: CYP2C9 enzyme of BD GENTEST inhibition kit, pH 7.4, read-out: CYP inhibition (%) 2C9
CYP2C9, sequence (P11712 whole entry): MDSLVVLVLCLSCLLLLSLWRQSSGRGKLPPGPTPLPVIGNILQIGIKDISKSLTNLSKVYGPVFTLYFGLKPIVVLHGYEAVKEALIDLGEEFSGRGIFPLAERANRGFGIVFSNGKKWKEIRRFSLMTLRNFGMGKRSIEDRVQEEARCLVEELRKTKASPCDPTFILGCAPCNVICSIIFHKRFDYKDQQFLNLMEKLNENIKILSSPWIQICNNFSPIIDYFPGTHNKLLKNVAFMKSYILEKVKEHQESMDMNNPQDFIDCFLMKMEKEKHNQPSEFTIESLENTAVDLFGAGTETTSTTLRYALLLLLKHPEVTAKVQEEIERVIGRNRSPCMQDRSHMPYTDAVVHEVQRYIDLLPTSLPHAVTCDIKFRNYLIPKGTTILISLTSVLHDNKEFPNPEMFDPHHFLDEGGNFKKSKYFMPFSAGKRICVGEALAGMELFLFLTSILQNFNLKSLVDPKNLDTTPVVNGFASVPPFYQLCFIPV
Protocol: as §1, §2

[4] = target: CYP2D6 (Homo sapiens (Human), UniProt P10635); assay: CYP inhibition (Invitrogen Vivid kit); type: in vitro ADME; settings: P450 BACULOSOMES reagent (Invitrogen Vivid CYP2D6 kit P2862), probe Vivid CYP450 substrate, read-out: CYP inhibition (%) 2D6
CYP2D6, sequence (P10635 whole entry): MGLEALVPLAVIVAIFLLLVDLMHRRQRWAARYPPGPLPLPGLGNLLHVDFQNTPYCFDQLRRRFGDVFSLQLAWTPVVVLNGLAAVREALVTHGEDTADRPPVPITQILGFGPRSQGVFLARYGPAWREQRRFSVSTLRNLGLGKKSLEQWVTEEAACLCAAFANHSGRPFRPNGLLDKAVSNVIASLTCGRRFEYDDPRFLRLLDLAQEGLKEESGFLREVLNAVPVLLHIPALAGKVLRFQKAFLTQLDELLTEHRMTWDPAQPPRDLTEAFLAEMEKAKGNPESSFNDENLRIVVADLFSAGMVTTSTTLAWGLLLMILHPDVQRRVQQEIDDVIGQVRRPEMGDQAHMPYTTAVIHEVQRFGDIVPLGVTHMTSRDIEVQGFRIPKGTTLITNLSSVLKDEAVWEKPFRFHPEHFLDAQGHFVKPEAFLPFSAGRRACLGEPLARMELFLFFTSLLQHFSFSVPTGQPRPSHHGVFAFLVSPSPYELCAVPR
From the text: (§3) CYP is the enzyme involved in drug metabolism. So, the inhibition of this enzyme can change the prediction of dose of a drug and toxicity caused by the co-treatment with other drugs. Therefore, the inventors measured the inhibitory effect of the compounds of Examples of the invention on endogenous CYP3A4, CYP2C9, CYP1A2, CYP2D6, and CYP2C19. At this time, Invitrogen (P2862) was used as the CYP2D6 inhibition kit, and BD GENTEST (459100, 459300, 459400, 459500) was used as the CYP1A2, CYP2C9, CYP2C19, and CYP3A4 inhibition kit. To prepare the Invitrogen kit, the test sample was diluted in distilled water at 2.5× of the final experimental concentration.
P450 BACULOSOMES® reagent and reproducer (100×) included in Invitrogen kit were diluted in Vivid® CYP450 reaction buffer (2×) at the concentration that matched the target CYP450. The prepared 2.5× sample (80 μL) and the diluted P450 BACULOSOMES® reagent mixture (100 μL) were mixed in each well of U-bottom 96-well plate, followed by pre-culture for 20 minutes. Vivid® CYP450 substrate and NADP+ (100×) were diluted in Vivid® CYP450 reaction buffer (2×) at the concentration that matched the target CYP450 and the substrate. Upon completion of the pre-culture, substrate-NADP (nicotinamide adenine dinucleotide phosphate) mixed solution (20 μL) was added thereto, followed by reaction for 1 hour. Upon completion of the reaction, the reactant was transferred onto the white plate, and then fluorescence was measured with a microplate reader (CYP 2D6 excitation wavelength: 400 nm, absorption wavelength: 502 nm). […]

[5] = target: CYP3A4 (Homo sapiens (Human), UniProt P08684); assay: CYP inhibition (BD GENTEST kit); type: in vitro ADME; settings: CYP3A4 enzyme of BD GENTEST inhibition kit, pH 7.4, read-out: CYP inhibition (%) 3A4
CYP3A4, sequence (P08684 whole entry): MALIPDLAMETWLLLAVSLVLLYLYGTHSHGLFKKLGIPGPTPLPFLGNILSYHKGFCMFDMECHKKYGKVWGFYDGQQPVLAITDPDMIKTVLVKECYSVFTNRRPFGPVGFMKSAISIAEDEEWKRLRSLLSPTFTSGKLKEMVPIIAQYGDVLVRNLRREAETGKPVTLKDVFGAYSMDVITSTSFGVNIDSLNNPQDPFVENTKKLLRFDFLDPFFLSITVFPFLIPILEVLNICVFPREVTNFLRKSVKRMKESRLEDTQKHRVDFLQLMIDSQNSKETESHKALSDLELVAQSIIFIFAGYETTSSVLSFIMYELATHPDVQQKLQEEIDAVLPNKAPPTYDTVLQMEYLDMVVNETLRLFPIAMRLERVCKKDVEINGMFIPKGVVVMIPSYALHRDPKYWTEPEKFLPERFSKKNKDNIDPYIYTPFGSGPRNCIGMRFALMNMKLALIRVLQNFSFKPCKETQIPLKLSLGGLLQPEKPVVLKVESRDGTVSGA
From the text: as §3
The test sample for BD GENTEST kit was diluted in acetonitrile at 50× of the final experimental concentration. NADPH-coenzyme mixture was prepared by diluting the coenzyme, G6PDH, and regulatory protein included in the kit with distilled water at the concentration instructed by the kit. The prepared 50× sample (4 μL) and the NADPH-coenzyme mixture (96 μL) were mixed in each well of U-bottom 96-well plate, followed by pre-culture for 10 minutes in a 37° C. incubator. Enzyme/substrate mixed solution was prepared by diluting the buffer (0.5 M potassium phosphate, pH 7.4), each CYP450 enzyme/substrate mixed solution included in the kit with distilled water at the instructed concentration. Upon completion of the pre-culture, 100 μL of the enzyme/substrate mixed solution was added in each well of the plate, followed by culture in a 37° C. incubator for 15 minutes (CYP 1A2), 30 minutes (CYP 3A4 and CYP 2C19) or 1 and half hours (CYP 2C9). Upon completion of the reaction, the reactant was transferred onto the white plate, and then fluorescence was measured with a microplate reader (CYP 1A2 and CYP 2C19 excitation wavelength: 410 nm, absorption wavelength: 460 nm; CYP 2C9 and CYP 3A4 excitation wavelength: 409 nm, absorption wavelength: 530 nm). The values obtained above were converted into % as the inhibition rate of the sample by the value of the non-treated group.

[6] = target: GPR40 (Homo sapiens (Human), UniProt O14842); assay: GPR40 protein activity by intracellular calcium concentration (Fluo-4, Flexstation 3) in transfected HEK-293 cells; type: cell-based; settings: HEK-293 cells transfected with human GPR40, intracellular calcium
GPR40, sequence (O14842 whole entry): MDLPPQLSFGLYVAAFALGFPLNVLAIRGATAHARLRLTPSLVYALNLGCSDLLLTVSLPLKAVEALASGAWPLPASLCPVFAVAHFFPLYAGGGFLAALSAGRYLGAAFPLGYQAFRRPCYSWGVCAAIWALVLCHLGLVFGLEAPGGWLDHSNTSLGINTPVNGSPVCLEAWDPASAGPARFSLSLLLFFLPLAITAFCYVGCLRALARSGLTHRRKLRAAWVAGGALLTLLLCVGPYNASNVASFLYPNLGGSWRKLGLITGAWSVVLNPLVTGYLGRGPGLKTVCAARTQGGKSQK
Protocol: The GPR40 protein activity according to the novel 3-(4-(benzyloxy)phenyl)hex-4-inoic acid derivative of the present invention was measured by investigating the changes in intracellular calcium concentration affected by the GRP40 activation. First, HEK-293 cells were transfected with human GPR40 DNA (Origene, RC218370) by using Fugene HD (Promega, E2311). […] 24 hours later, the cell culture medium was replaced with Dulbecco's Modified Eagle Medium (DMEM, 50 μl/well) supplemented with 1% fetal bovine serum (FBS). To measure the calcium concentration, 50 μl of Fluo-4 reagent (Invitrogen, F10471) was added to each well, followed by culture in a 37° C. incubator for 2 hours. […] 2 hours after the culture began, those prepared samples were automatically injected to the cells by using Flexstation 3 (Molecular Devices). Then, intracellular calcium concentration was measured for 120 seconds by using SoftMax® Pro software. At this time, dimethylsulfoxide (DMSO) was injected to the cells for the non-treated group, followed by measuring the calcium concentration therein. The GPR40 protein activity was calculated by the below mathematical formula 1 with the results of calcium concentration measurement. GPR40 activity=(intracellular calcium concentration increased by the sample)/(intracellular calcium concentration of the non-treated group)×100 [Mathematical Formula 1]

[7] = tested on: Male OLETF (Otsuka Long-Evans Tokushima fatty) rats, the type II diabetes animal model (obesity); assay: Oral glucose tolerance test (OGTT) 3; type: in vivo, rat
Protocol: (§4) Male OLETF (Otsuka Long-Evans Tokushima fatty) rats at 29˜30 weeks, the type II diabetes animal model (obesity), were adapted at least for 7 days. Only healthy animals were selected thereafter, followed by OGTT. After fasting for 16˜18 hours, 5 rats per group were randomly selected and orally administered with the compounds prepared in Examples 5, 9, 14, 28, 37, and 47 at the dose of 1˜10 mg/kg. At this time, 5% polyethyleneglycol (PEG) was orally administered at the same dose to the non-treated group rats. 60 minutes after the sample administration, glucose (4 g/kg) was orally administered thereto at the dose of 5 ml/kg. Then, blood glucose was measured by using Accu-chek active strip (Roche diagnostic Co.). The time for the measurement was set at 60 minutes before the glucose administration (−60), 0 minute, 20 minutes, 40 minutes, 60 minutes, and 120 minutes after the glucose administration, and blood glucose was measured through tail vein puncture.

[8] = tested on: Male Goto-Kakizaki (GK) rats, the type II diabetes animal model (not obesity); assay: Oral glucose tolerance test (OGTT) 2; type: in vivo, rat
Protocol: as §4, with “Goto-Kakizaki (GK)” for “OLETF (Otsuka Long-Evans Tokushima fatty)”, “22˜23” for “29˜30”, “(not obesity),” for “(obesity),”, “0.3˜10” for “1˜10”

[9] = values in text, read-out: EC50, concentration promoting activation of GPR40 protein by 50%
[10] = oral dose 10 mg/kg, values in text

Row | SMILES | inhibition at 15 min, 10 µM [1] [%] | inhibition at 30 min, 10 µM [2] [%] | inhibition at 1.5 h, 10 µM [3] [%] | inhibition at 1 h, 10 µM [4] [%] | inhibition at 30 min, 10 µM [5] [%] | EC50 ([6]; read-out: EC50) [µM] | EC50 [6, 9] [µM] | % AUC ([7]; oral dose 1 mg/kg) | % AUC ([7]; oral dose 3 mg/kg) | % AUC ([7]; oral dose 10 mg/kg) | % AUC ([8]; oral dose 0.3 mg/kg) | % AUC ([8]; oral dose 1 mg/kg) | % AUC ([8]; oral dose 3 mg/kg) | % AUC ([8]; oral dose 10 mg/kg) | hypoglycemic effect compared to Comparative Example 1 at 10 mg/kg ([7]; oral dose 1 mg/kg) | hypoglycemic effect compared with the non-treated group [7, 10] | hypoglycemic effect by that of the non-treated group [8, 10]
1 | CC#CC(CC(=O)O)c1ccc(OCc2cccc(C3=CCC4(CC3)OCCO4)c2)cc1 (stereo not shown) [Example 1, 3-(4-(3-(1,4-dioxaspiro[4,5]dec-7-en-8-yl)benzyloxy)phenyl)hex-4-ynoic acid] | 0 | 18.3 | 42.8 | 1.9 | 12.7 |  |  |  |  |  |  |  |  |  |  |  | 
2 | CC#CC(CC(=O)O)c1ccc(OCc2cccc(C3=CCC(O)CC3)c2)cc1 (stereo not shown) [Example 5, 3-(4-(3-(4-hydroxycyclohex-1-enyl)benzyloxy)phenyl)hex-4-ynoic acid] |  |  |  |  |  | 0.2 to 0.3 |  | B (25.0-35.0%) | B (25.0-35.0%) | A (over 35.0%) | C (under 25.0%) | C (under 25.0%) | C (under 25.0%) | B (25.0-35.0%) |  |  | 
3 | CC#CC(CC(=O)O)c1ccc(OCc2ccc(CN3CC=C(c4ccccc4)CC3)cc2)cc1 (stereo not shown) [Example 14, 3-(4-(4-((4-phenyl-5,6-dihydropyridine-1(2H)-yl)methyl)benzyloxy)phenyl)hex-4-ynoic acid] |  |  |  |  |  | < 0.2 | < 0.2 | C (under 25.0%) | B (25.0-35.0%) | B (25.0-35.0%) | C (under 25.0%) | C (under 25.0%) | B (25.0-35.0%) | B (25.0-35.0%) |  |  | 
4 | CC#C[C@@H](CC(=O)[O-])c1ccc(OCc2ccc(CN3Cc4ccccc4C3)cc2)cc1.[Na+] [Example 37, sodium (S)-3-(4-(4-(isoindoline-2-ylmethyl)benzyloxy)phenyl)hex-4-ynoate] |  |  |  |  |  |  |  | A (over 35.0%) | A (over 35.0%) | A (over 35.0%) | C (under 25.0%) | B (25.0-35.0%) | B (25.0-35.0%) | A (over 35.0%) | higher hypoglycemic effect | more than 35.0% | more than 35.0%

Second part, led by results:

Row | inhibition at 15 min, 10 µM [1] [%] | inhibition at 30 min, 10 µM [2] [%] | inhibition at 1.5 h, 10 µM [3] [%] | inhibition at 1 h, 10 µM [4] [%] | inhibition at 30 min, 10 µM [5] [%] | EC50 ([6]; read-out: EC50) [µM] | EC50 [6, 9] [µM] | SMILES | % AUC ([7]; oral dose 1 mg/kg) | % AUC ([7]; oral dose 3 mg/kg) | % AUC ([7]; oral dose 10 mg/kg) | % AUC ([8]; oral dose 0.3 mg/kg) | % AUC ([8]; oral dose 1 mg/kg) | % AUC ([8]; oral dose 3 mg/kg) | % AUC ([8]; oral dose 10 mg/kg) | hypoglycemic effect compared to Comparative Example 1 at 10 mg/kg ([7]; oral dose 1 mg/kg) | hypoglycemic effect compared with the non-treated group [7, 10] | hypoglycemic effect by that of the non-treated group [8, 10]
5 |  |  |  |  |  | < 0.2 | < 0.2 | CC#C[C@@H](CC(=O)O)c1ccc(OCc2ccc(CN3CC=C(c4ccccc4)CC3)cc2)cc1 [Example 28, (S)-3-(4-(4-((4-phenyl-5,6-dihydropyridine-1(2H)-yl)methyl)benzyloxy)phenyl)hex-4-ynoic acid] | B (25.0-35.0%) | B (25.0-35.0%) | B (25.0-35.0%) | C (under 25.0%) | C (under 25.0%) | C (under 25.0%) | B (25.0-35.0%) |  |  | 
6 |  |  |  |  |  | 0.2 to 0.3 |  | CC#C[C@@H](CC(=O)[O-])c1ccc(OCc2cccc(N3CCN(c4ccc(OC)cc4)CC3)c2)cc1.[Na+] [Example 47, sodium (S)-3-(4-(3-(4-(4-methoxyphenyl)piperazin-1-yl)benzyloxy)phenyl)hex-4-ynoate] | C (under 25.0%) | C (under 25.0%) | B (25.0-35.0%) | C (under 25.0%) | C (under 25.0%) | B (25.0-35.0%) | B (25.0-35.0%) |  |  | 
